Assay results taken from PMC8268376, “Effects of Venlafaxine, Risperidone and Febuxostat on Cuprizone-Induced Demyelination, Behavioral Deficits and Oxidative Stress” (International Journal of Molecular Sciences, 2021).

Target: TRPA1 (hTRPA1, transient receptor potential ankyrin 1) (Homo sapiens, UniProt O75762)
Assay: Calcium […] fluorescence assay in hTRPA1-transfected vs untransfected HEK293T cells; agonist response blocked by A-967079; significant at […] and above
Format: cell-based

Chain of TRPA1 (hTRPA1, transient receptor potential ankyrin 1) (O75762 whole entry): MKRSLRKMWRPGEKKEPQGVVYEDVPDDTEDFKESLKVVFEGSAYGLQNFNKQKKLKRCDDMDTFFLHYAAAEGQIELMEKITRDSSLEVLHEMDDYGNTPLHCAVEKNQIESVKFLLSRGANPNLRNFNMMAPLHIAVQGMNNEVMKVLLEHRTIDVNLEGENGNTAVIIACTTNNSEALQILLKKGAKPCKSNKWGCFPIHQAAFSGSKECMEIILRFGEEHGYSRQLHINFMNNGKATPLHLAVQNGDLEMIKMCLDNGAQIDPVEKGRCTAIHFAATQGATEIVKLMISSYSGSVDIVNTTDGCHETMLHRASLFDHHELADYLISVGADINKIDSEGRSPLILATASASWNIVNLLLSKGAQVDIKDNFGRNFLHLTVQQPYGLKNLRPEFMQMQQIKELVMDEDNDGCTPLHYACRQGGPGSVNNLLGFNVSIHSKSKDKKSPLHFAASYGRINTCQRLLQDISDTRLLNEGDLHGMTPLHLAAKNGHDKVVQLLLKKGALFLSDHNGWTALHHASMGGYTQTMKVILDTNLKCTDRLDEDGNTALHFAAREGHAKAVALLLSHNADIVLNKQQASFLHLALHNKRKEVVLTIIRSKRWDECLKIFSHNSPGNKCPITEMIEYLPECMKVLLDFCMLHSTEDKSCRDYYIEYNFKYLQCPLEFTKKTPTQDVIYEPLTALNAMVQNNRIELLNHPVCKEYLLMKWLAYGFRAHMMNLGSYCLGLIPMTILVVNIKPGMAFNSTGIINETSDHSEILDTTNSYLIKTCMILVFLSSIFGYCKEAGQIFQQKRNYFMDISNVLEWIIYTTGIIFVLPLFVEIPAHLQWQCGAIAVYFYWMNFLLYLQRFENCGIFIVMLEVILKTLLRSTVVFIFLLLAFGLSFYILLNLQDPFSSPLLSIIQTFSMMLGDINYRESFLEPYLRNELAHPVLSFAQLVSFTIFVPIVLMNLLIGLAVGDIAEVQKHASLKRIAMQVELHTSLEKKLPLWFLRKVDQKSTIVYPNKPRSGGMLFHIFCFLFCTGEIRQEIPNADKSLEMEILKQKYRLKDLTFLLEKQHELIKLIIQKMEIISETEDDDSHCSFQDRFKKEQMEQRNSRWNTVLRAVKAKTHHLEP

Cc1nc(-c2ccc(OCC(C)C)c(C#N)c2)sc1C(=O)O [febuxostat]
lowest concentration giving significant TRPA1 calcium response: ~ 126 µM
